Measured values: patent US11696913B2, “Prolonged ectoparasite-controlling agent for animal” (MITSUI CHEMICALS AGRO, INC., priority 2017, dated 2023)
Where two headings read alike, the source gives them in different places.

Assays:
Dermacentor variabilis = experiment: Systemic treatment in-vivo test with American dog tick nymph on rats; details: Dermacentor variabilis, ip, intraperitoneal injection
Method: Systemic Treatment In-Vivo Test with American Dog Tick Nymph and Cat Flea on Rats
Type of study and overall study design: The method is a randomized non-blinded efficacy study in accordance with European animal welfare requirements. Rats (Rattus norvegicus) were randomized based on pre-treatment flea counts. The efficacy of treatment was determined by comparison of the flea and tick counts of different treatment groups versus the placebo-treated control group. The experimental unit was the individual study animal. Method and route of administration: The compound was applied in a suitable solvent and carrier (more specifically, added to glycerol formal; in case of poorly soluble compounds, a solvent mixture with up to 25% by volume of N-methyl pyrrolidone may be used.) considering the individual body weight as an intraperitoneal injection.
Experimental infestation: On the day of treatment and weekly thereafter, 30 ticks (D. variabilis nymphs) were released onto the back of each rat, and 30 fleas (C. felis) were released onto the back of each rat 24 h later.
Tick and Flea counting: Rats were thoroughly examined and ticks and fleas were manually removed 48 h (±4 h) after tick infestation and 24 h after flea infestation. Live fleas and live attached engorged ticks were counted. In non-evident cases, engorgement status was evaluated by squeezing the tick on a filter paper to find traces of blood as sign for engorgement.

Laodelphax striatellus = experiment: Insecticidal testing against small brown planthopper; format: in vivo; details: 144 h, concentration 100 ppm, sprayed rice seedlings, after 6 days, read-out: pesticidal rate
In short: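 Acetone solution of compound at a set concentration sprayed onto rice seedlings, air-dried, then exposed to 10 planthoppers (one group). Held at 25° C; survival rate recorded after 6 days.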

Ixodes ricinus = experiment: In vitro contact test with adult hard ticks (Ixodes ricinus); details: read-out: acaricidal activity; for pest or weed control at 5 µg/cm2, 5 µg/cm2: dose 5 μg/cm^2, 48 h
In short: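 Acaricidal activity = % ticks dead or moribund after 48 h contact with acetone-deposited compound on vial walls (e.g., 900 ppm solution → 5 μg/cm^2). Ambient conditions for R. sanguineus, 21° C./85% rel. hum. for other species; heat challenge at 45-50° C. separated climbers from moribund ticks.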

Ctenocephalides felis = experiment: In vitro contact test with fleas; details: read-out: insecticidal activity; for pest or weed control at 0.04 µg/cm2, 0.04 µg/cm2: dose 0.04 μg/cm^2, dead or moribund fleas after 48 h; for pest or weed control at 0.2 µg/cm2, 0.2 µg/cm2: dose 0.2 μg/cm^2, dead or moribund fleas after 48 h; for pest or weed control at 1 µg/cm2, 1 µg/cm2: dose 1 μg/cm^2, dead or moribund fleas after 48 h
In short: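 Activity is the percentage of fleas dead or moribund at 48 h, judged by immobility or uncoordinated movement after tapping. Tubes were coated by evaporating acetone solutions (900 ppm gives 5 μg/cm^2), then held 5-10 adult fleas of both sexes at room temperature and ambient humidity.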

[1] = SD 2, read-out: Geometric mean percent reduction in live tick (Dermacentor variabilis) counts compared to untreated control rats
[2] = SD 9, read-out: Geometric mean percent reduction in live tick (Dermacentor variabilis) counts compared to untreated control rats
[3] = SD 16, read-out: Geometric mean percent reduction in live tick (Dermacentor variabilis) counts compared to untreated control rats
[4] = SD 23, read-out: Geometric mean percent reduction in live tick (Dermacentor variabilis) counts compared to untreated control rats
[5] = SD 30, read-out: Geometric mean percent reduction in live tick (Dermacentor variabilis) counts compared to untreated control rats

SMILES	inhibition in vivo at 10 mg/kg (Dermacentor variabilis; [1]) [%]	inhibition in vivo at 10 mg/kg (Dermacentor variabilis; [2]) [%]	inhibition in vivo at 10 mg/kg (Dermacentor variabilis; [3]) [%]	inhibition in vivo at 10 mg/kg (Dermacentor variabilis; [4]) [%]	inhibition in vivo at 10 mg/kg (Dermacentor variabilis; [5]) [%]	pest or weed control at 100 ppm (Laodelphax striatellus) [%]	pest or weed control at 1 µg/cm2, 1 µg/cm2 (Ixodes ricinus; dose 1 μg/cm^2, 48 h) [%]	pest or weed control at 5 µg/cm2, 5 µg/cm2 (Ixodes ricinus) [%]	pest or weed control at 0.04 µg/cm2, 0.04 µg/cm2 (Ctenocephalides felis) [%]	pest or weed control at 0.2 µg/cm2, 0.2 µg/cm2 (Ctenocephalides felis) [%]	pest or weed control at 1 µg/cm2, 1 µg/cm2 (Ctenocephalides felis) [%]	inhibition in vivo at 2 mg/kg (Dermacentor variabilis; [1]) [%]	inhibition in vivo at 2 mg/kg (Dermacentor variabilis; [2]) [%]	inhibition in vivo at 2 mg/kg (Dermacentor variabilis; [3]) [%]	inhibition in vivo at 2 mg/kg (Dermacentor variabilis; [4]) [%]	inhibition in vivo at 2 mg/kg (Dermacentor variabilis; [5]) [%]	pest or weed control at 0.2 µg/cm2, 0.2 µg/cm2 (Ixodes ricinus; dose 0.2 μg/cm^2, 48 h) [%]
CN(C(=O)c1ccc(F)cc1)c1cccc(C(=O)Nc2c(I)cc(C(F)(C(F)(F)F)C(F)(F)F)cc2OC(F)(F)F)c1F [Compound 74]	100	100	90	89	78	≥ 70	90	90	95	95	95	–	–	–	–	–	–
CN(C(=O)c1ccc(C(F)(F)F)nc1)c1cccc(C(=O)Nc2c(I)cc(C(F)(C(F)(F)F)C(F)(F)C(F)(F)F)cc2C(F)(F)F)c1F (stereo not shown) [Compound 119]	100	100	100	89	61	≥ 70	–	–	95	95	95	100	96	63	1	61	–
CN(C(=O)c1ccc(F)cc1)c1cccc(C(=O)Nc2c(I)cc(C(F)(C(F)(F)F)C(F)(F)C(F)(F)F)cc2C(F)(F)F)c1F (stereo not shown) [Compound 37]	100	100	99	99	80	–	–	–	95	95	95	–	–	–	–	–	–
CN(C(=O)c1ccc(F)cc1)c1cccc(C(=O)Nc2c(I)cc(C(F)(C(F)(F)F)C(F)(F)C(F)(F)F)cc2OC(F)F)c1F (stereo not shown) [Compound 103]	100	100	74	43	–	≥ 70	–	90	95	95	95	–	–	–	–	–	90
